# Test results published in US10980808B2, “Calmodulin inhibitors, Chk2 inhibitors and RSK inhibitors for the treatment of ribosomal disorders and ribosomapathies” (THE CHILDREN'S MEDICAL CENTER CORPORATION, priority 2016, dated 2021).
# Counter-ions that a name gives are not always drawn.
# Columns and labels:
# [1] = tested on: Chk2 activation in HT29 cells; conditions: cited from earlier work
# mouse thymocytes = conditions: cited from earlier work
# p70S6K = p70S6K (Homo sapiens, UniProt P23443); assay: in vitro kinase profiling (Thermo Fisher SelectScreen), p70S6K; type: biochemical
# p70S6K, sequence (P23443 whole entry): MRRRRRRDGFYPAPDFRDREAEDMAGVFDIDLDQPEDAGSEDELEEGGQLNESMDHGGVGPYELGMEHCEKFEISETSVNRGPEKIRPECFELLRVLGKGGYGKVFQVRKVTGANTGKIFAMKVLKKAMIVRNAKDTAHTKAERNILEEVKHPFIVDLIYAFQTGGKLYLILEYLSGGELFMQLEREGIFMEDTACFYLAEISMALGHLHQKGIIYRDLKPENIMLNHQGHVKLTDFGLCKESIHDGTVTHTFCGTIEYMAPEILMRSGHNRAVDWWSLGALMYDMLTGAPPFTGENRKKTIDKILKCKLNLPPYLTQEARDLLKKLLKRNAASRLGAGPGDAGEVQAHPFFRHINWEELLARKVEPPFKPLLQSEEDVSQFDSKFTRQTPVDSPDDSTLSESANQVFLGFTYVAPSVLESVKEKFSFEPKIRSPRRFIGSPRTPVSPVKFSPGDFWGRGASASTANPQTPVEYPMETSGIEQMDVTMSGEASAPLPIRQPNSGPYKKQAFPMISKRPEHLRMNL
# Description: We asked if CaM and Chk2 inhibitors are blocking specific kinases. The known kinases that phosphorylate S392 are CK2 and p38. […] Thus, the question became what is TFP inhibiting upstream? Is it inhibiting a kinase that phosphorylates S392? We submitted CaM and Chk2 inhibitors for Kinase profiling using Thermo Fisher's SelectScreen.
# [2] = tested on: rps29−/− zebrafish embryos; assay: hemoglobin (benzidine staining) rescue in rps29-/- zebrafish embryos; type: in vivo; conditions: benzidine staining; dihydrochloride
# [3] = tested on: calcium in lysates of RPS19 knocked down cells; assay: colorimetric calcium detection in cellular lysates; type: cell-based
# Description: (§1) We hypothesize that the CaM inhibition is indirect, CaM is needed for calcium signaling. […] RSK inhibitor: SL and B1. P70s6K inhibitor: PF. In Summary we show: 1) CaM and Chk2 inhibitors reduce S392 phosphorylation of p53—to a much greater extent during ribosomal protein deficiency 2) CaM and Chk2 inhibitors also decrease P-p70S6K to a much greater extent during RP deficiency 3) p70S6K can directly phosphorylate p53 S392 in vitro 4) Total protein levels of RSK, p70S6K and rps6 are increased ruing RP deficiency in vitro and in vivo 5) RSK2 is increased in our microarray in […] vs WT 24 hpf embryos. Protein validates this upregulation 6) Calcium levels are increased during RP deficiency 7) Blocking the CaM-Calcium signaling (CaM inhibitors) or directly inhibiting RSK or p70S6K (Chk2 inhibitors) leads to a decrease in P-p53 and p53 activity. Reduced p53 activity leads to fewer RBCs undergoing apoptosis, alleviating the anemia.
# [4] = tested on: p70S6K and RPS6 phosphorylation in cells; assay: phosphorylation after calcium chelation in cells; type: cell-based; conditions: chelating calcium in cells
# Description: as §1
# [5] = tested on: rps29−/− zebrafish embryos; conditions: previously demonstrated; cited from earlier work
smiles,measurement,setting,value
"COc1cc2nc(-c3cc(F)ccc3O)nc(NC3CNC[C@H]3C(C)(C)O)c2cc1OC (some centres unmarked) [CCT, CCT 241533 dihydrochloride]",Chk2 activation in response to etoposide-induced DNA damage,[1],inhibits
same,ionizing radiation-induced apoptosis,mouse thymocytes,blocks
same,"percent inhibition of in vitro kinase activity, p70S6K",p70S6K,inhibition
same,hemoglobin (Hb) in rps29−/− embryos,[2],rescue Hb
CC(=O)OCOC(=O)CN(CC(=O)OCOC(C)=O)c1ccccc1OCCOc1ccccc1N(CC(=O)OCOC(C)=O)CC(=O)OCOC(C)=O [BAPTA-AM],calcium levels in cellular lysates,[3],reduce the calcium levels
same,RPS6 phosphorylation,[4],reduces
same,p70S6K phosphorylation,[4],reduces
NCCCCCCNS(=O)(=O)c1cccc2ccccc12 [W-5],rescue of the vasculature defect,[5],rescue the vasculature defect
